Laboratory results published in patent publication US20260242372A1, “NOVEL IMIDAZOPYRIDINE AND PYRAZOLOPYRIDINE SULFONAMIDE DERIVATIVES” (Hoffmann-La Roche Inc., priority 2022, published 2026).

Molecular target: human GPR17 short isoform (Homo sapiens, UniProt Q13304)
Test: GPR17 cAMP assay (hGPR17 cAMP, TR-FRET, antagonist mode)
Format: cell-based
Conditions: CHO-K1 cells stably expressing human GPR17 short isoform; EC80 of agonist MDL29,951; forskolin 15 μM; 30 min at room temperature
Description: CHO-K1 cells stably expressing vector containing untagged human GPR17 short isoform (Roche) were cultured at 37° C./5% CO2 in DMEM (Dulbecco's Modified Eagle Medium): F-12 (1:1) supplemented with 10% foetal bovine serum and 400 μg/ml Geneticin.
Changes in intracellular cyclic adenosine monophosphate (cAMP) levels were quantified using the Nano-TRF Detection Assay kit (Roche Diagnostics, Cat. No. 05214386001). This assay allows for direct cAMP quantification in a homogeneous solution. CAMP is detected based on time-resolved fluorescence energy transfer (TR-FRET) and competitive binding of ruthenylated cAMP and endogenous cAMP to an anti-cAMP monoclonal antibody labeled with AlexaFluor-700. The Ruthenium complex serves as the FRET donor and transfers energy to AlexaFluor-700. The FRET signal is inversely proportional to the CAMP concentration.
CHO-GPR17S cells were detached with Accutase and resuspended in assay buffer consisting of Hank's Balanced Salt Solution (HBSS), 10 mM HEPES (4-(2-hydroxyethyl) piperazine-1-ethanesulfonic acid solution) and 0.1% bovine serum albumin (pH 7.4). The cells were seeded in black 384-well plates (Corning) at a density of 10′000 cells/20 μl assay buffer until the addition of compounds.
Test antagonist compounds were serially diluted in dimethyl sulfoxide (DMSO) and spotted in 384-well plates. The compounds were then diluted in HBSS buffer supplemented with an EC80 concentration of MDL29,951 (3-(2-Carboxy-4,6-dichloroindol-3-yl) propionic acid) (GPR17 agonist) plus 3-Isobutyl-1-methylxanthine (IBMX) (0.5 mM final concentration) and added to the cells at room temperature. Forskolin (15 μM final concentration) was added 5 minutes after the test compounds and the cells were incubated at room temperature for 30 minutes. The assay was stopped by adding cAMP detection mix (containing detergents for cell lysis) for 90 minutes at room temperature.
Cellular cAMP was measured using a Paradigm reader (Molecular Devices). The raw data was used to calculate the FRET signal based on the assay's P-factor as per cAMP kit instructions. The data was normalized to the maximal activity of a reference antagonist and dose response curves were fitted to the percent activity of the test compounds using a sigmoidal dose response model (Genedata Screener).

Sequence of human GPR17 short isoform (Q13304 29-367): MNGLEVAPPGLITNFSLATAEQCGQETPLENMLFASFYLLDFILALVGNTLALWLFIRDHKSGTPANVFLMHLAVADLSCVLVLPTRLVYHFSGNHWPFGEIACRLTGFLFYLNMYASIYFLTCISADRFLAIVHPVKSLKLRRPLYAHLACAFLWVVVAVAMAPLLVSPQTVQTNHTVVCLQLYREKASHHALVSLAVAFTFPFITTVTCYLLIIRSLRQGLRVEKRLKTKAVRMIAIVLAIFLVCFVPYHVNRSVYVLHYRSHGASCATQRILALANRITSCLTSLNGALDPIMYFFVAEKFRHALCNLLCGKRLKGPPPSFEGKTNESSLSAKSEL

Compound | IC50 [nM]
O=S(=O)(Nc1cc(F)c(OC(F)F)nc1OC(F)F)c1cnc2cc(Cl)ccn12 [Example 38, N-[2,6-bis(difluoromethoxy)-5-fluoro-3-pyridyl]-7-chloro-imidazo[1,2-a]pyridine-3-sulfonamide] | 57
COc1ccn2c(S(=O)(=O)Nc3cc(F)c(OC(F)F)nc3OC)cnc2c1 [Example 29, N-[6-(difluoromethoxy)-5-fluoro-2-methoxy-3-pyridyl]-7-methoxy-imidazo[1,2-a]pyridine-3-sulfonamide] | 33
COc1nc(OCC(F)F)c(F)cc1NS(=O)(=O)c1cnc2nc(Cl)ccn12 [Example 42, 7-chloro-N-[6-(2,2-difluoroethoxy)-5-fluoro-2-methoxy-3-pyridyl]imidazo[1,2-a]pyrimidine-3-sulfonamide] | 72
COc1ccn2c(S(=O)(=O)Nc3cc(F)c(OCC(F)F)nc3OC)cnc2c1C#N [Example 60, 8-cyano-N-[6-(2,2-difluoroethoxy)-5-fluoro-2-methoxy-3-pyridyl]-7-methoxy-imidazo[1,2-a]pyridine-3-sulfonamide] | 179
COc1nc(NS(=O)(=O)c2cnc3cc(C4COC4)ccn23)c(F)cc1CC(F)F [Example 102, N-[5-(2,2-difluoroethyl)-3-fluoro-6-methoxy-2-pyridyl]-7-(oxetan-3-yl)imidazo[1,2-a]pyridine-3-sulfonamide] | 201
COc1nc(OCC(F)F)c(F)cc1NS(=O)(=O)c1cnc2cc(C3COC3)ccn12 [Example 100, N-[6-(2,2-difluoroethoxy)-5-fluoro-2-methoxy-3-pyridyl]-7-(oxetan-3-yl)imidazo[1,2-a]pyridine-3-sulfonamide] | 37
COc1nc(OCC(F)F)c(F)cc1NS(=O)(=O)c1cnc2c(=O)n(C)ccn12 [Example 58, N-[6-(2,2-difluoroethoxy)-5-fluoro-2-methoxy-3-pyridyl]-8-keto-7-methyl-imidazo[1,2-a]pyrazine-3-sulfonamide] | 174
COc1nc(NS(=O)(=O)c2cnc3cc(C4CC4)ccn23)c(F)cc1CC#N [Example 96, N-[5-(cyanomethyl)-3-fluoro-6-methoxy-2-pyridyl]-7-cyclopropyl-imidazo[1,2-a]pyridine-3-sulfonamide] | 38
COc1nc(OCC(F)F)c(F)cc1NS(=O)(=O)c1cnc2c(C#N)c(C)ccn12 [Example 27, 8-cyano-N-[6-(2,2-difluoroethoxy)-5-fluoro-2-methoxy-3-pyridyl]-7-methyl-imidazo[1,2-a]pyridine-3-sulfonamide] | 31
COc1nc(NS(=O)(=O)c2cnc3cc(Br)ccn23)ncc1OCCF [Example 91, 7-bromo-N-[5-(2-fluoroethoxy)-4-methoxy-pyrimidin-2-yl]imidazo[1,2-a]pyridine-3-sulfonamide] | 211
COc1nc(OCC(F)F)c(F)cc1NS(=O)(=O)c1cnc2n1CCC(C)(C)C2 [Example 45, N-[6-(2,2-difluoroethoxy)-5-fluoro-2-methoxy-3-pyridyl]-7,7-dimethyl-6,8-dihydro-5H-imidazo[1,2-a]pyridine-3-sulfonamide] | 76
COc1ccn2c(S(=O)(=O)Nc3cc(F)c(OCC(F)F)nc3OC)cnc2n1 [Example 37, N-[6-(2,2-difluoroethoxy)-5-fluoro-2-methoxy-3-pyridyl]-7-methoxy-imidazo[1,2-a]pyrimidine-3-sulfonamide] | 56
COc1nc(OC(F)F)c(F)cc1NS(=O)(=O)c1cnc2c(C#N)c(C)ccn12 [Example 43, 8-cyano-N-[6-(difluoromethoxy)-5-fluoro-2-methoxy-3-pyridyl]-7-methyl-imidazo[1,2-a]pyridine-3-sulfonamide] | 75
COc1nc(OCC(F)F)c(F)cc1NS(=O)(=O)c1cnc2nc(C)ccn12 [Example 48, N-[6-(2,2-difluoroethoxy)-5-fluoro-2-methoxy-3-pyridyl]-7-methyl-imidazo[1,2-a]pyrimidine-3-sulfonamide] | 85
N#CCc1cc(F)c(NS(=O)(=O)c2cnc3cc(Cl)ccn23)cc1F [Example 64, 7-chloro-N-(4-(cyanomethyl)-2,5-difluorophenyl)imidazo[1,2-a]pyridine-3-sulfonamide] | 251
COc1ccn2c(S(=O)(=O)Nc3nc(OC)c(CC#N)cc3F)cnc2c1 [Example 35, N-[5-(cyanomethyl)-3-fluoro-6-methoxy-2-pyridyl]-7-methoxy-imidazo[1,2-a]pyridine-3-sulfonamide] | 46
COc1ccn2c(S(=O)(=O)Nc3cc(F)c(CC#N)cc3F)cnc2c1 [Example 55, N-[4-(cyanomethyl)-2,5-difluoro-phenyl]-7-methoxy-imidazo[1,2-a]pyridine-3-sulfonamide] | 116
COc1nc(OCC(F)F)c(F)cc1NS(=O)(=O)c1cnc2c(C)cccn12 [Example 71, N-[6-(2,2-difluoroethoxy)-5-fluoro-2-methoxy-3-pyridyl]-8-methyl-imidazo[1,2-a]pyridine-3-sulfonamide] | 413

Stronger by IC50, values ahead:

IC50 [nM] | Compound
10 | COc1nc(OCC(F)F)c(F)cc1NS(=O)(=O)c1cnn2cc(Br)ccc12 [Example 78, 6-bromo-N-[6-(2,2-difluoroethoxy)-5-fluoro-2-methoxy-3-pyridyl]pyrazolo[1,5-a]pyridine-3-sulfonamide]
9 | COc1nc(OCC(F)F)c(F)cc1NS(=O)(=O)c1cnc2cc(C3CC3)ccn12 [Example 94, 7-cyclopropyl-N-[6-(2,2-difluoroethoxy)-5-fluoro-2-methoxy-3-pyridyl]imidazo[1,2-a]pyridine-3-sulfonamide]
26 | COc1nc(NS(=O)(=O)c2cnn3cc(Br)ccc23)c(F)cc1OCCF [Example 80, 6-bromo-N-[3-fluoro-5-(2-fluoroethoxy)-6-methoxy-2-pyridyl]pyrazolo[1,5-a]pyridine-3-sulfonamide]
14 | COc1nc(CC(F)F)c(F)cc1NS(=O)(=O)c1cnc2cc(Cl)ccn12 [Example 11, 7-chloro-N-[6-(2,2-difluoroethyl)-5-fluoro-2-methoxy-3-pyridyl]imidazo[1,2-a]pyridine-3-sulfonamide]
23 | COc1nc(CC#N)c(F)cc1NS(=O)(=O)c1cnc2cc(Cl)ccn12 [Example 22, 7-chloro-N-[6-(cyanomethyl)-5-fluoro-2-methoxy-3-pyridyl]imidazo[1,2-a]pyridine-3-sulfonamide]
8 | COc1nc(NS(=O)(=O)c2cnn3cc(Br)ccc23)c(F)cc1OC(F)F [Example 99, 6-bromo-N-[5-(difluoromethoxy)-3-fluoro-6-methoxy-2-pyridyl]pyrazolo[1,5-a]pyridine-3-sulfonamide]
5 | COc1nc(OCC(F)F)c(F)cc1NS(=O)(=O)c1cnc2cc(Br)ccn12 [Example 1, 7-bromo-N-[6-(2,2-difluoroethoxy)-5-fluoro-2-methoxy-3-pyridyl]imidazo[1,2-a]pyridine-3-sulfonamide]
7 | COc1cc(CC#N)c(F)cc1NS(=O)(=O)c1cnc2cc(Br)ccn12 [Example 3, 7-bromo-N-[4-(cyanomethyl)-5-fluoro-2-methoxy-phenyl]imidazo[1,2-a]pyridine-3-sulfonamide]
18 | COc1nc(OCC(F)F)c(F)cc1NS(=O)(=O)c1cnc2nc(C3CC3)ccn12 [Example 16, 7-cyclopropyl-N-[6-(2,2-difluoroethoxy)-5-fluoro-2-methoxy-3-pyridyl]imidazo[1,2-a]pyrimidine-3-sulfonamide]
